Measured values as given in patent US20080009418A1, “Selective Inhibitors” (Alchemia LTD., priority 2004, published 2008).

Legend:
Human neurokinin (NK1) = biological target: T1, Human neurokinin (NK1) (Homo sapiens, UniProt P25103); assay: Radioligand binding, human neurokinin NK1 membranes, filtration, [125I]-Substance P; conditions: compound at 10 μM; [125I]-Substance P
T1 construct: purchased Perkin Elmer Biosignal
In short: (§1)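 Membranes from cloned human receptors were incubated with compound and radioligand for 1 hour at room temperature. Bound ligand was collected on 0.3% PEI-soaked filters, washed with cold 50 mM Tris-HCl pH 7.4, and counted by scintillation. Percent inhibition was computed against DMSO totals and reference-ligand nonspecific wells.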

Human melanocortin (MC5) = biological target: T2, Human melanocortin (MC5) (Homo sapiens, UniProt P33032); assay: Radioligand binding, human melanocortin MC5 membranes, FlashPlate, [125I]-NDP-αMSH; conditions: compound at 10 μM; [125I]-NDP-αMSH
T2 construct: purchased Perkin Elmer Biosignal
In short: (§2)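 Cloned human receptor membranes were coated onto FlashPlate wells and incubated with radioligand and compound (added from a 0.5 mM DMSO daughter plate) for 1 hour at room temperature in the dark. Scintillation counting gave percent inhibition, with DMSO defining total and reference ligand defining non-specific binding.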

Human Melanocortin (MC4) = biological target: T3, Human Melanocortin (MC4) (Homo sapiens, UniProt P32245); assay: Radioligand binding, human melanocortin MC4 membranes, FlashPlate, [125I]-NDP-αMSH; conditions: compound at 10 μM; [125I]-NDP-αMSH
T3 construct: purchased Perkin Elmer Biosignal
In short: as §2

[1] = biological target: T4, Human neuropeptide Y (NPY-Y1) (Homo sapiens, UniProt P25929); assay: Radioligand binding, human neuropeptide Y NPY-Y1 membranes, FlashPlate, [125I]-PYY; conditions: compound at 10 μM; [125I]-PYY
T4 construct: purchased Perkin Elmer Biosignal
T4 sequence (P25929 1-384): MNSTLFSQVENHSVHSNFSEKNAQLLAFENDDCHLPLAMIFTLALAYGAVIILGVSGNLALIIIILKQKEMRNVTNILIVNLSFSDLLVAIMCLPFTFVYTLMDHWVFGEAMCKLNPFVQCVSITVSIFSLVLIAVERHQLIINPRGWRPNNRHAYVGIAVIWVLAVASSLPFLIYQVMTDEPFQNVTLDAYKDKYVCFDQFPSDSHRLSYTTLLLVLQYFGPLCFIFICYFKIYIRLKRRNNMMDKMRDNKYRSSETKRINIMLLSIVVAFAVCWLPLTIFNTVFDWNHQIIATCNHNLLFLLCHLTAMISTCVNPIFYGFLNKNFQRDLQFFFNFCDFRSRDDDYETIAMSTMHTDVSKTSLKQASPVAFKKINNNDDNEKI
In short: as §2

Human μ-opioid (MOP) = biological target: T5, Human μ-opioid (MOP) (Homo sapiens, UniProt P35372); assay: Radioligand binding, human μ-opioid (MOP) membranes, FlashPlate, [3H]-Naloxone; conditions: compound at 10 μM; [3H]-Naloxone
T5 construct: purchased Perkin Elmer Biosignal
In short: as §2

Human δ-opioid (DOP) = biological target: T6, Human δ-opioid (DOP) (Homo sapiens, UniProt P41143); assay: Radioligand binding, human δ-opioid (DOP) membranes, FlashPlate, [3H]-Bremazocine; conditions: compound at 10 μM; [3H]-Bremazocine
T6 construct: purchased Perkin Elmer Biosignal
In short: as §2

Human Melanocortin (MC3) = biological target: T7, Human Melanocortin (MC3) (Homo sapiens, UniProt P41968); assay: Radioligand binding, human melanocortin MC3 membranes, FlashPlate, [125I]-NDP-αMSH; conditions: compound at 10 μM; [125I]-NDP-αMSH
T7 construct: purchased Perkin Elmer Biosignal
In short: as §2

[2] = biological target: T8, Human melanin-concentrating hormone (MCH1) (Homo sapiens, UniProt Q99705); assay: Radioligand binding, human melanin-concentrating hormone MCH1 membranes, FlashPlate, [125I]-S36057; conditions: compound at 10 μM; [125I]-S36057
T8 construct: purchased Perkin Elmer Biosignal
In short: as §2

Mouse urotensin (mUR2) = biological target: T9, Mouse urotensin (mUR2) (Mus musculus, UniProt Q8VIH9); assay: Radioligand binding, mouse urotensin mUR2 membranes, FlashPlate, [125I]-Urotensin II; conditions: compound at 10 μM; [125I]-Urotensin II
T9 construct: purchased Perkin Elmer Biosignal
T9 sequence (Q8VIH9 1-385): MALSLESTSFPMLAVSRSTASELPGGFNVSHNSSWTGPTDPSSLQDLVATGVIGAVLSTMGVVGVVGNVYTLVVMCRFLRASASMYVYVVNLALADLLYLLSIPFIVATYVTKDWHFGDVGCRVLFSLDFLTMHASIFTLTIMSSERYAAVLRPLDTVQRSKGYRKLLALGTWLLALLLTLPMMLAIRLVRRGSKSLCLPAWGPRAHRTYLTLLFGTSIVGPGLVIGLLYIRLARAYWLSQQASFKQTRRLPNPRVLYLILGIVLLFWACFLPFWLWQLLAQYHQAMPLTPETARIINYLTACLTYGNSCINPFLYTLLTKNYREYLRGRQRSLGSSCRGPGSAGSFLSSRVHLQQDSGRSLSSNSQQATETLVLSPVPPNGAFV
In short: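 Cloned mouse urotensin (mUR2) receptor membranes from Perkin Elmer Biosignal were immobilized in FlashPlate microplates using a proprietary coating. Each well got 19.5 μl buffer, then 0.5 μl of DMSO, reference ligand, or compound. Adding 5 μl of [125I]-Urotensin II, diluted to 5× final concentration in binding buffer, started binding. Plates were sealed with TopSeal-A and incubated 1 hour at room temperature in the dark. Wells were counted for 30 seconds each on a TopCount after a 60-second delay, and percentage inhibition was calculated.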

Human κ-Opioid (KOP) = biological target: T10, Human κ-Opioid (KOP) (Homo sapiens, UniProt P41145); assay: Radioligand binding, human κ-opioid (KOP) membranes, filtration, [3H]-Diprenorphine; conditions: compound at 10 μM; [3H]-Diprenorphine
T10 construct: purchased Perkin Elmer Biosignal
In short: as §1

Human opioid (ORL1) = biological target: T11, Human opioid (ORL1) (Homo sapiens, UniProt P41146); assay: Radioligand binding, human opioid ORL1 membranes, FlashPlate, [125I]-Nociceptin; conditions: compound at 10 μM; [125I]-Nociceptin
T11 construct: purchased Perkin Elmer Biosignal
In short: as §2

T2 sequence (P33032 whole entry): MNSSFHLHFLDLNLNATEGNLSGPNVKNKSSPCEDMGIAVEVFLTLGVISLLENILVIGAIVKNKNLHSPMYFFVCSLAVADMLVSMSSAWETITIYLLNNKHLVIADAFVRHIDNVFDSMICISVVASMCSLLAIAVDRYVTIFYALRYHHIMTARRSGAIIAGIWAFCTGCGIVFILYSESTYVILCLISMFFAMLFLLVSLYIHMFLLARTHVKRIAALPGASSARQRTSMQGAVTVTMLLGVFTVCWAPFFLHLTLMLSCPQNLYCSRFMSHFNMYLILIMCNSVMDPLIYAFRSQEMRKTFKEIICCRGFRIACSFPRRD
T6 sequence (P41143 whole entry): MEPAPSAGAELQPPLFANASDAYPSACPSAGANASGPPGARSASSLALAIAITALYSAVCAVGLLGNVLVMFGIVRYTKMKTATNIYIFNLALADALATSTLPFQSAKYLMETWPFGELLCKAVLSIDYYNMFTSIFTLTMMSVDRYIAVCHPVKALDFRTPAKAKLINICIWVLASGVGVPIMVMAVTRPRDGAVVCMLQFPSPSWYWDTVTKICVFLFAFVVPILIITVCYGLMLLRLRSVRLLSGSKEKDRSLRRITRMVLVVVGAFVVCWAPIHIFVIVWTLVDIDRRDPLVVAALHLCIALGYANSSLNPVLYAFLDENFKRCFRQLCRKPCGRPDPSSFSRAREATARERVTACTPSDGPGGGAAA
T10 sequence (P41145 whole entry): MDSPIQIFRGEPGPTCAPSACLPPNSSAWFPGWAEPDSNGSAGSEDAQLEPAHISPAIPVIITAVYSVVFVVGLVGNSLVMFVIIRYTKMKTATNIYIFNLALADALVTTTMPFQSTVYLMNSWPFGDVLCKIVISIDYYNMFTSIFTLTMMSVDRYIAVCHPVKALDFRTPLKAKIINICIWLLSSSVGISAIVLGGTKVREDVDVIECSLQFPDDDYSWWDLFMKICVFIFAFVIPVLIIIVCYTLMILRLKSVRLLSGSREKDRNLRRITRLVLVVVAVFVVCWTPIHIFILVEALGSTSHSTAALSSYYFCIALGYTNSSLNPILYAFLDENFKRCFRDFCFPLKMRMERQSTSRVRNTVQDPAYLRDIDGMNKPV
T5 sequence (P35372 whole entry): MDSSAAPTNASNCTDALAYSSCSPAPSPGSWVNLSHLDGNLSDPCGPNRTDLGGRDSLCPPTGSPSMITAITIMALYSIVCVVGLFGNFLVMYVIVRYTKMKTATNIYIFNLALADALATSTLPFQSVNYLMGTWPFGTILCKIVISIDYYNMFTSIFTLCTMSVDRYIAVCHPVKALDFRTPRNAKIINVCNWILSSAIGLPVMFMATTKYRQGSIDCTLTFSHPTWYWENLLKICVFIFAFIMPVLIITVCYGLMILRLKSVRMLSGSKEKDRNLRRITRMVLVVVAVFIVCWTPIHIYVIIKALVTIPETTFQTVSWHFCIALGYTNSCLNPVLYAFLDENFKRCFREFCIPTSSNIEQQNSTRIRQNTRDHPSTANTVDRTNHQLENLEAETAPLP
T11 sequence (P41146 whole entry): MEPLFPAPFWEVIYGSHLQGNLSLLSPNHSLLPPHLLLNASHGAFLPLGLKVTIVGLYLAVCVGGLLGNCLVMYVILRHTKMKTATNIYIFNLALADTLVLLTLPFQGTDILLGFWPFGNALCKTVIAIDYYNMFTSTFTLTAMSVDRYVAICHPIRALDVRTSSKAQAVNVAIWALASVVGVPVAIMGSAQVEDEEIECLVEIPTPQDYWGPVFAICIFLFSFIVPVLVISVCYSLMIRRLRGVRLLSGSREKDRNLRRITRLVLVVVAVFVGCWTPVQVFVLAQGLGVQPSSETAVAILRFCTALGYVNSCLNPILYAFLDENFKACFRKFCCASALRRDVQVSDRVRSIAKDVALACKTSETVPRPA
T8 sequence (Q99705 whole entry): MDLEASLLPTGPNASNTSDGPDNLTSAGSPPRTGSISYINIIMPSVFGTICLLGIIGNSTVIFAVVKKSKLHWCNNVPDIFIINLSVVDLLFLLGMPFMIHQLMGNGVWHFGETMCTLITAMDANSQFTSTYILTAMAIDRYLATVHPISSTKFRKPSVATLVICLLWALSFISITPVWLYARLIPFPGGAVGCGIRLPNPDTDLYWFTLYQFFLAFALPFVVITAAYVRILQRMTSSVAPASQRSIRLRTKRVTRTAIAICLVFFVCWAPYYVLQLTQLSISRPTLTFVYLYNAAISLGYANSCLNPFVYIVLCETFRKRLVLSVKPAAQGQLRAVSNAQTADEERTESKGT
T3 sequence (P32245 whole entry): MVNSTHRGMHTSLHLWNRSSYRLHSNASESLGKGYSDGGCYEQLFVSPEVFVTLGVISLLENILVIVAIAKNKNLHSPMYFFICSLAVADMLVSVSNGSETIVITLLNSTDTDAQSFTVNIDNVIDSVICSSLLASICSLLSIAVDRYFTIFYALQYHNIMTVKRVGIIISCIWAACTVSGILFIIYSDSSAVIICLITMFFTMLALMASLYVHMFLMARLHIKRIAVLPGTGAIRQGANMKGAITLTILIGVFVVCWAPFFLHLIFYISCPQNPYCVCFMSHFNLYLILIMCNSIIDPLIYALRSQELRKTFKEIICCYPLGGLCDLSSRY
T7 sequence (P41968 whole entry): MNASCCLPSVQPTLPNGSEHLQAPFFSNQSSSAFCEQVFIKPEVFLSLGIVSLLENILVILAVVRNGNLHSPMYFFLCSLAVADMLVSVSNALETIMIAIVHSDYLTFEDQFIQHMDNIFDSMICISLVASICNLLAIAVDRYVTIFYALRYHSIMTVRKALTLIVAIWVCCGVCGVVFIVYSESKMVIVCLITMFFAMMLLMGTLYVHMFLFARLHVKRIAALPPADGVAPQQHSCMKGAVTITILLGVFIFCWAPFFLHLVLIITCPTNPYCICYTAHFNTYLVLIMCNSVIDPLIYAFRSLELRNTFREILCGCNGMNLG
T1 sequence (P25103 whole entry): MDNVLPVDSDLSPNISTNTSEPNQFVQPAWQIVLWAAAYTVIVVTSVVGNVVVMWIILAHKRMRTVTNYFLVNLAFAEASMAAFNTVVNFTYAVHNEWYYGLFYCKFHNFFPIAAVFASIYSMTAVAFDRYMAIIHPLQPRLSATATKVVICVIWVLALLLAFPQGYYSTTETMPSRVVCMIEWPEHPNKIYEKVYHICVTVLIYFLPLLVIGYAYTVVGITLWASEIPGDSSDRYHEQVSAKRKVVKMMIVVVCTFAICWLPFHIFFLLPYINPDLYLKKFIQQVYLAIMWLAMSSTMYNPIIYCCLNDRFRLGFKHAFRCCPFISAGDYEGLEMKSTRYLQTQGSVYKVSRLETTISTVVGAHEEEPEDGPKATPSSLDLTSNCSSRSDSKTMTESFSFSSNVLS

## NCCC(=O)NC1C(OCc2ccccc2)OC(COCc2ccc(Cl)cc2)C(O)C1OCc1ccc2ccccc2c1 (stereo not shown) [compound 368]
Human neurokinin (NK1)
  A8: inhibition of radioligand binding, human neurokinin (NK1): + (“+” indicates greater than 50% inhibition at 10 μM)
Human melanocortin (MC5)
  A5: inhibition of radioligand binding, human melanocortin (MC5): + (“+” indicates greater than 50% inhibition at 10 μM)
Human Melanocortin (MC4)
  A4: inhibition of radioligand binding, human melanocortin (MC4): + (“+” indicates greater than 50% inhibition at 10 μM)
[1]
  A9: inhibition of radioligand binding, human neuropeptide Y (NPY-Y1): − (“−” indicates less than 50% inhibition at 10 μM)
Human μ-opioid (MOP)
  A7: inhibition of radioligand binding, human μ-opioid (MOP): − (“−” indicates less than 50% inhibition at 10 μM)
Human δ-opioid (DOP)
  A1: inhibition of radioligand binding, human δ-opioid (DOP): − (“−” indicates less than 50% inhibition at 10 μM)
Human Melanocortin (MC3)
  A3: inhibition of radioligand binding, human melanocortin (MC3): + (“+” indicates greater than 50% inhibition at 10 μM)
[2]
  A6: inhibition of radioligand binding, human melanin-concentrating hormone (MCH1): − (“−” indicates less than 50% inhibition at 10 μM)
Mouse urotensin (mUR2)
  A11: inhibition of radioligand binding, mouse urotensin (mUR2): − (“−” indicates less than 50% inhibition at 10 μM)
Human κ-Opioid (KOP)
  A2: inhibition of radioligand binding, human κ-opioid (KOP): − (“−” indicates less than 50% inhibition at 10 μM)
Human opioid (ORL1)
  A10: inhibition of radioligand binding, human opioid (ORL1): − (“−” indicates less than 50% inhibition at 10 μM)

## NCCC(=O)NC1C(OCc2ccccc2)OC(COCc2ccc3ccccc3c2)C(O)C1OCc1ccccc1 (stereo not shown) [compound 369]
Human neurokinin (NK1)
  A8: inhibition of radioligand binding, human neurokinin (NK1): + (“+” indicates greater than 50% inhibition at 10 μM)
Human melanocortin (MC5)
  A5: inhibition of radioligand binding, human melanocortin (MC5): − (“−” indicates less than 50% inhibition at 10 μM)
Human Melanocortin (MC4)
  A4: inhibition of radioligand binding, human melanocortin (MC4): + (“+” indicates greater than 50% inhibition at 10 μM)
[1]
  A9: inhibition of radioligand binding, human neuropeptide Y (NPY-Y1): − (“−” indicates less than 50% inhibition at 10 μM)
Human μ-opioid (MOP)
  A7: inhibition of radioligand binding, human μ-opioid (MOP): − (“−” indicates less than 50% inhibition at 10 μM)
Human δ-opioid (DOP)
  A1: inhibition of radioligand binding, human δ-opioid (DOP): − (“−” indicates less than 50% inhibition at 10 μM)
Human Melanocortin (MC3)
  A3: inhibition of radioligand binding, human melanocortin (MC3): − (“−” indicates less than 50% inhibition at 10 μM)
[2]
  A6: inhibition of radioligand binding, human melanin-concentrating hormone (MCH1): − (“−” indicates less than 50% inhibition at 10 μM)
Mouse urotensin (mUR2)
  A11: inhibition of radioligand binding, mouse urotensin (mUR2): − (“−” indicates less than 50% inhibition at 10 μM)
Human κ-Opioid (KOP)
  A2: inhibition of radioligand binding, human κ-opioid (KOP): − (“−” indicates less than 50% inhibition at 10 μM)
Human opioid (ORL1)
  A10: inhibition of radioligand binding, human opioid (ORL1): − (“−” indicates less than 50% inhibition at 10 μM)

## NCCC(=O)NC1C(OCc2ccccc2)OC(COCc2ccccc2)C(O)C1OCc1ccccc1 (stereo not shown) [compound 370]
Human neurokinin (NK1)
  A8: inhibition of radioligand binding, human neurokinin (NK1): + (“+” indicates greater than 50% inhibition at 10 μM)
Human melanocortin (MC5)
  A5: inhibition of radioligand binding, human melanocortin (MC5): − (“−” indicates less than 50% inhibition at 10 μM)
Human Melanocortin (MC4)
  A4: inhibition of radioligand binding, human melanocortin (MC4): − (“−” indicates less than 50% inhibition at 10 μM)
[1]
  A9: inhibition of radioligand binding, human neuropeptide Y (NPY-Y1): − (“−” indicates less than 50% inhibition at 10 μM)
Human μ-opioid (MOP)
  A7: inhibition of radioligand binding, human μ-opioid (MOP): − (“−” indicates less than 50% inhibition at 10 μM)
Human δ-opioid (DOP)
  A1: inhibition of radioligand binding, human δ-opioid (DOP): − (“−” indicates less than 50% inhibition at 10 μM)
Human Melanocortin (MC3)
  A3: inhibition of radioligand binding, human melanocortin (MC3): − (“−” indicates less than 50% inhibition at 10 μM)
[2]
  A6: inhibition of radioligand binding, human melanin-concentrating hormone (MCH1): − (“−” indicates less than 50% inhibition at 10 μM)
Mouse urotensin (mUR2)
  A11: inhibition of radioligand binding, mouse urotensin (mUR2): − (“−” indicates less than 50% inhibition at 10 μM)
Human κ-Opioid (KOP)
  A2: inhibition of radioligand binding, human κ-opioid (KOP): − (“−” indicates less than 50% inhibition at 10 μM)
Human opioid (ORL1)
  A10: inhibition of radioligand binding, human opioid (ORL1): − (“−” indicates less than 50% inhibition at 10 μM)

## NCCC(=O)NC1C(OCc2ccccc2)OC(COCc2ccc(Cl)cc2)C(O)C1OCc1ccccc1 (stereo not shown) [compound 371]
Human neurokinin (NK1)
  A8: inhibition of radioligand binding, human neurokinin (NK1): + (“+” indicates greater than 50% inhibition at 10 μM)
Human melanocortin (MC5)
  A5: inhibition of radioligand binding, human melanocortin (MC5): − (“−” indicates less than 50% inhibition at 10 μM)
Human Melanocortin (MC4)
  A4: inhibition of radioligand binding, human melanocortin (MC4): − (“−” indicates less than 50% inhibition at 10 μM)
[1]
  A9: inhibition of radioligand binding, human neuropeptide Y (NPY-Y1): − (“−” indicates less than 50% inhibition at 10 μM)
Human μ-opioid (MOP)
  A7: inhibition of radioligand binding, human μ-opioid (MOP): − (“−” indicates less than 50% inhibition at 10 μM)
Human δ-opioid (DOP)
  A1: inhibition of radioligand binding, human δ-opioid (DOP): − (“−” indicates less than 50% inhibition at 10 μM)
Human Melanocortin (MC3)
  A3: inhibition of radioligand binding, human melanocortin (MC3): − (“−” indicates less than 50% inhibition at 10 μM)
[2]
  A6: inhibition of radioligand binding, human melanin-concentrating hormone (MCH1): − (“−” indicates less than 50% inhibition at 10 μM)
Mouse urotensin (mUR2)
  A11: inhibition of radioligand binding, mouse urotensin (mUR2): − (“−” indicates less than 50% inhibition at 10 μM)
Human κ-Opioid (KOP)
  A2: inhibition of radioligand binding, human κ-opioid (KOP): − (“−” indicates less than 50% inhibition at 10 μM)
Human opioid (ORL1)
  A10: inhibition of radioligand binding, human opioid (ORL1): − (“−” indicates less than 50% inhibition at 10 μM)

## NCCCC(=O)NC1C(OCc2ccccc2)OC(COCc2ccc3ccccc3c2)C(O)C1OCc1ccc(Cl)cc1 (stereo not shown) [compound 372]
Human neurokinin (NK1)
  A8: inhibition of radioligand binding, human neurokinin (NK1): + (“+” indicates greater than 50% inhibition at 10 μM)
Human melanocortin (MC5)
  A5: inhibition of radioligand binding, human melanocortin (MC5): + (“+” indicates greater than 50% inhibition at 10 μM)
Human Melanocortin (MC4)
  A4: inhibition of radioligand binding, human melanocortin (MC4): + (“+” indicates greater than 50% inhibition at 10 μM)
[1]
  A9: inhibition of radioligand binding, human neuropeptide Y (NPY-Y1): − (“−” indicates less than 50% inhibition at 10 μM)
Human μ-opioid (MOP)
  A7: inhibition of radioligand binding, human μ-opioid (MOP): − (“−” indicates less than 50% inhibition at 10 μM)
Human δ-opioid (DOP)
  A1: inhibition of radioligand binding, human δ-opioid (DOP): − (“−” indicates less than 50% inhibition at 10 μM)
Human Melanocortin (MC3)
  A3: inhibition of radioligand binding, human melanocortin (MC3): − (“−” indicates less than 50% inhibition at 10 μM)
[2]
  A6: inhibition of radioligand binding, human melanin-concentrating hormone (MCH1): − (“−” indicates less than 50% inhibition at 10 μM)
Mouse urotensin (mUR2)
  A11: inhibition of radioligand binding, mouse urotensin (mUR2): − (“−” indicates less than 50% inhibition at 10 μM)
Human κ-Opioid (KOP)
  A2: inhibition of radioligand binding, human κ-opioid (KOP): − (“−” indicates less than 50% inhibition at 10 μM)
Human opioid (ORL1)
  A10: inhibition of radioligand binding, human opioid (ORL1): − (“−” indicates less than 50% inhibition at 10 μM)
